# Measurements reported in patent EP0500835B1, “A NOVEL QUINOLONE CARBOXYLIC ACID DERIVATIVE” (DAEWOONG PHARMACEUTICAL CO., LTD., priority 1990, dated 1992).
# Columns and labels:
# Test in all cases: In vitro antibacterial activity, MIC by agar dilution method
# Format in all cases: cell-based
# E. coli 1507E = details: Escherichia coli, 1507E, read-out: In vitro Antibacterial Activity, MIC
# Protocol: (§1) The typical examples of the present compounds were tested for antimicrobial activity in vitro against twenty strains of Gram-positive and Gram-negative microorganisms.
# (§2) The numerals in the table 1 show minimum inhibitory concentrations(MIC in µg/ml). The minimum inhibitory concentrations were determined according to the agar dilution method recommended by Japan Society of Chemotherapy[Chemotherapy., 29, 76 (1981)].
# E. coli DC 0 = details: Escherichia coli, DC0, read-out: In vitro Antibacterial Activity, MIC
# Protocol: as §1, §2
# E. coli DC 2 = details: Escherichia coli, DC2, read-out: In vitro Antibacterial Activity, MIC
# Protocol: as §1, §2
# E. coli TEM = details: Escherichia coli, read-out: In vitro Antibacterial Activity, MIC
# Protocol: as §1, §2
# K. oxytoca 1082E = details: Klebsiella oxytoca, 1082E, read-out: In vitro Antibacterial Activity, MIC
# Protocol: as §1, §2
# P. aeruginosa 1592E = details: Pseudomonas aeruginosa, 1592E, read-out: In vitro Antibacterial Activity, MIC
# Protocol: as §1, §2
# P. aeruginosa 1771M = details: Pseudomonas aeruginosa, 1771M, read-out: In vitro Antibacterial Activity, MIC
# Protocol: as §1, §2
# P. aeruginosa 1771 = details: Pseudomonas aeruginosa, 1771, read-out: In vitro Antibacterial Activity, MIC
# Protocol: as §1, §2
# P. aeruginosa 9027 = details: Pseudomonas aeruginosa, 9027, read-out: In vitro Antibacterial Activity, MIC
# Protocol: as §1, §2
# S. aureus 285 = details: Staphylococcus aureus, 285, read-out: In vitro Antibacterial Activity, MIC
# Protocol: as §1, §2
# S. aureus 503 = details: Staphylococcus aureus, 503, read-out: In vitro Antibacterial Activity, MIC
# Protocol: as §1, §2
# S. aureus SG 511 = details: Staphylococcus aureus, SG511, read-out: In vitro Antibacterial Activity, MIC
# Protocol: as §1, §2
# S. faecium MD 86 = details: Enterococcus faecium, MD86, read-out: In vitro Antibacterial Activity, MIC
# Protocol: as §1, §2
# S. pyogenes A 308 = details: Streptococcus pyogenes, A308, read-out: In vitro Antibacterial Activity, MIC
# Protocol: as §1, §2
# S. pyogenes A 77 = details: Streptococcus pyogenes, A77, read-out: In vitro Antibacterial Activity, MIC
# Protocol: as §1, §2
# E. cloacae 1321E = details: Enterobacter cloacae, 1321E, read-out: In vitro Antibacterial Activity, MIC
# Protocol: as §1
# (§3) The minimum inhibitory concentrations were determined according to the agar dilution method recommended by Japan Society of Chemotherapy[Chemotherapy., 29, 76 (1981)].
# E. cloacae P99 = details: Enterobacter cloacae, P99, read-out: In vitro Antibacterial Activity, MIC
# Protocol: as §1, §3
# E. coli O 55 = details: Escherichia coli, O55, read-out: In vitro Antibacterial Activity, MIC
# Protocol: as §1, §3
# K. aerogenes 1522E = details: Klebsiella aerogenes, 1522E, read-out: In vitro Antibacterial Activity, MIC
# Protocol: as §1, §3
# S. typhimurium = details: Salmonella enterica, TYPHIMURIUM, read-out: In vitro Antibacterial Activity, MIC
# Protocol: as §1, §3
Structure (SMILES),MIC (E. coli 1507E) [µg/mL],MIC (E. coli DC 0) [µg/mL],MIC (E. coli DC 2) [µg/mL],MIC (E. coli TEM) [µg/mL],MIC (K. oxytoca 1082E) [µg/mL],MIC (P. aeruginosa 1592E) [µg/mL],MIC (P. aeruginosa 1771M) [µg/mL],MIC (P. aeruginosa 1771) [µg/mL],MIC (P. aeruginosa 9027) [µg/mL],MIC (S. aureus 285) [µg/mL],MIC (S. aureus 503) [µg/mL],MIC (S. aureus SG 511) [µg/mL],MIC (S. faecium MD 86) [µg/mL],MIC (S. pyogenes A 308) [µg/mL],MIC (S. pyogenes A 77) [µg/mL],MIC (E. cloacae 1321E) [µg/mL],MIC (E. cloacae P99) [µg/mL],MIC (E. coli O 55) [µg/mL],MIC (K. aerogenes 1522E) [µg/mL],MIC (S. typhimurium) [µg/mL]
"CSCC1CCN(c2c(F)c(F)c3c(=O)c(C(=O)O)cn(C4CC4)c3c2F)C1 (stereo not shown) [Example 3, 1-cyclpropyl-5,6,8-trifluoro-7-(3-methylthiomethylpyrrolidinyl)-1,4-dihydro-4-oxo-3-quinolinecarboxylic acid]",3.12,6.25,3.12,3.12,0.098,3.12,1.56,1.56,3.12,0.013,0.007,0.008,0.781,0.781,1.56,0.391,0.391,0.195,0.781,0.391
"CSCC1CCN(c2c(F)c(N)c3c(=O)c(C(=O)O)cn(C4CC4)c3c2F)C1 (stereo not shown) [Example 9, 1-cyclopropyl-5-amino-6,8-difluoro-7-(3-methylthiomethylpyrrolidinyl)-1,4-dihydro-4-oxo-3-quinolinecarboxylic acid]",0.025,3.12,0.195,0.025,1.56,3.12,0.781,1.56,3.12,0.025,0.007,0.004,1.2,0.195,0.391,0.049,0.049,0.013,3.12,0.049
